Reference: ChEMBL document CHEMBL5042486, “Discovery and Preclinical Characterization of BIIB091, a Reversible, Selective BTK Inhibitor for the Treatment of Multiple Sclerosis” (J Med Chem, 2022)
≈ marks a conversion by molar mass, not a printed value.

Tests used:
[1] = Protein binding in human plasma assessed as unbound fraction at 2 uM by rapid equilibrium dialysis method; format: ADME, cell-free
[2] = Solubility of the compound in FaSIF at pH 6.5; format: physicochemical
[3] = Volume of distribution at steady state in Beagle dog at 1 mg/kg, iv; format: ADME, organism-based, Canis lupus familiaris; conditions: in vivo, read-out: Vdss
[4] = Half life in Sprague-Dawley rat at 5 mg/kg, po; format: ADME, organism-based; conditions: in vivo
[5] = Cmax in Sprague-Dawley rat at 5 mg/kg, po; format: ADME, organism-based; design: route oral, dose 5 mg/kg; conditions: in vivo
[6] = Oral bioavailability in Beagle dog at 5 mg/kg; format: ADME, organism-based, Canis lupus familiaris; conditions: in vivo
[7] = Solubility of the compound in simulated gastric fluid at pH 1.6; format: physicochemical
[8] = Volume of distribution at steady state in Sprague-Dawley rat at 1 mg/kg, iv; format: ADME, organism-based; conditions: in vivo, read-out: Vdss
[9] = Clearance in Beagle dog at 1 mg/kg, iv; format: ADME, organism-based, Canis lupus familiaris; conditions: in vivo
[10] = Clearance in Beagle dog assessed as hepatic blood flow at 1 mg/kg, iv; format: ADME, organism-based, Canis lupus familiaris, Liver; conditions: in vivo
[11] = Kinetic solubility of the compound at pH 7.5 by shake flask method; format: physicochemical; conditions: buffer, read-out: Kinetic_solubility
[12] = AUC in Beagle dog at 5 mg/kg, po; format: ADME, organism-based, Canis lupus familiaris; design: dose 5 mg/kg; conditions: in vivo
[13] = AUC in Sprague-Dawley rat at 5 mg/kg, po; format: ADME, organism-based; design: dose 5 mg/kg; conditions: in vivo
[14] = Oral bioavailability in Sprague-Dawley rat at 5 mg/kg; format: ADME, organism-based; conditions: in vivo
[15] = Clearance in Sprague-Dawley rat at 1 mg/kg, iv; format: ADME, organism-based; conditions: in vivo
[16] = Kinetic solubility of the compound at pH 1.5 by shake flask method; format: physicochemical; conditions: buffer, read-out: Kinetic_solubility
[17] = Cmax in Beagle dog at 5 mg/kg, po; format: ADME, organism-based, Canis lupus familiaris; design: route oral, dose 5 mg/kg; conditions: in vivo
[18] = Lipophilicity, logD of the compound at pH 7.6 by shake flask assay; format: physicochemical; conditions: buffer
[19] = Half life in Beagle dog at 5 mg/kg, po; format: ADME, organism-based, Canis lupus familiaris; conditions: in vivo
[20] = Solubility of the compound in FeSIF at pH 5.9; format: physicochemical
[21] = Clearance in Sprague-Dawley rat assessed as hepatic blood flow at 1 mg/kg, iv; format: ADME, organism-based, Liver; conditions: in vivo
[22] = target: T1, Tyrosine-protein kinase BTK (Homo sapiens, UniProt Q06187); experiment: Inhibition of human BTK using fluorescein-labeled polyGAT peptide as substrate incubated for 30 mins by FRET assay
T1 sequence (Q06187 whole entry): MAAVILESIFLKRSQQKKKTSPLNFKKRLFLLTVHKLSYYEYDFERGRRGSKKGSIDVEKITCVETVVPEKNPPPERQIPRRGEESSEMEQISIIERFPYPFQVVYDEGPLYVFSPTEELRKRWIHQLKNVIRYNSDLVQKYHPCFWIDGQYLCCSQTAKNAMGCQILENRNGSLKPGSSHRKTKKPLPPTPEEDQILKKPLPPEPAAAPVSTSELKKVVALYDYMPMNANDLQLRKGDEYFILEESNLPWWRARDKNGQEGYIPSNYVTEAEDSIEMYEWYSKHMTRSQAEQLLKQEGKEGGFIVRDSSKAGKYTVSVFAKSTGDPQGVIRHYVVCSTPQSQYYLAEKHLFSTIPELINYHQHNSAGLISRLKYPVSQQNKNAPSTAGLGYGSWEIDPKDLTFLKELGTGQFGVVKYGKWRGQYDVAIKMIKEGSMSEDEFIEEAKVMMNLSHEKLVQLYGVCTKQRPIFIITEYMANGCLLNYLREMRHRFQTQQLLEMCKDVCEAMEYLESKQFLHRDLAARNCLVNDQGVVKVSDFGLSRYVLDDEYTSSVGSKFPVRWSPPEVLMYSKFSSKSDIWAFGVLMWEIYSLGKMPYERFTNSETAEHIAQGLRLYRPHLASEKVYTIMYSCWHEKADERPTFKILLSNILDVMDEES

[23] = target: T1, Tyrosine-protein kinase BTK; experiment: Inhibition of BTK phosphorylation in human whole blood assessed as reduction in BTK phosphorylation incubated for 30 mins; format: tissue-based
[24] = Kinetic aqueous solubility of the compound in pH 3; format: physicochemical; conditions: read-out: Kinetic_solubility
[25] = Kinetic aqueous solubility of the compound in pH 6.8; format: physicochemical; conditions: read-out: Kinetic_solubility
[26] = Protein binding in rat plasma assessed as unbound fraction at 2 uM by rapid equilibrium dialysis method; format: ADME, cell-free
[27] = target: Cytochrome P450 2C9 (Homo sapiens, UniProt P11712); experiment: Inhibition of CYP2C9 (unknown origin); format: ADME
Chain of Cytochrome P450 2C9 (P11712 whole entry): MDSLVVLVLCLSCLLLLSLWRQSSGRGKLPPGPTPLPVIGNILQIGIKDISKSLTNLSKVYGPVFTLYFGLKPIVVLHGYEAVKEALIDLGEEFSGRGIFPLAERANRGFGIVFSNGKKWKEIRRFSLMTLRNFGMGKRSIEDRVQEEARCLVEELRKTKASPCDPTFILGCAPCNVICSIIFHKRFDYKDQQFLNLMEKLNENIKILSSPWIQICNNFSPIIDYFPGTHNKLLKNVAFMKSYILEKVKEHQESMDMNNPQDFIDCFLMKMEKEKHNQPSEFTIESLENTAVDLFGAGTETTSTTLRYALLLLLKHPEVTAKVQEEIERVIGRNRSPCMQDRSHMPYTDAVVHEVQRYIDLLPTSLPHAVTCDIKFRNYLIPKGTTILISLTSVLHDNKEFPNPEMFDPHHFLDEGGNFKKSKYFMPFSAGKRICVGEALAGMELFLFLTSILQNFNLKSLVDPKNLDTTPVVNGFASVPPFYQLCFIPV

[28] = target: Cytochrome P450 3A4 (Homo sapiens, UniProt P08684); experiment: Inhibition of CYP3A4 (unknown origin); format: ADME
Chain of Cytochrome P450 3A4 (P08684 whole entry): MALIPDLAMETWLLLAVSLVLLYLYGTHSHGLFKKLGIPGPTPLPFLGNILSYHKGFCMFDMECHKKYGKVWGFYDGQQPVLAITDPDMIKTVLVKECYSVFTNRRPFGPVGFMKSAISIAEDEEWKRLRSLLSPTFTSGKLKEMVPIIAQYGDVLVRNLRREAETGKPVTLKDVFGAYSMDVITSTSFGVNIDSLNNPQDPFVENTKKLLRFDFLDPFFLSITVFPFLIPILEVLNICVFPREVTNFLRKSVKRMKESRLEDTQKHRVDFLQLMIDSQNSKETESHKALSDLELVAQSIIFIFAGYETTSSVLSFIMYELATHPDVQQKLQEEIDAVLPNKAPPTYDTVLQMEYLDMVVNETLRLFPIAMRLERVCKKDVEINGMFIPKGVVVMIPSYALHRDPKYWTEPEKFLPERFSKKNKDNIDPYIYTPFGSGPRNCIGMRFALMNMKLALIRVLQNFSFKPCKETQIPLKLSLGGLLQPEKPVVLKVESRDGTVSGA

[29] = Dissociation constant, pKa of the compound; format: physicochemical

CC(C)OC1CN(C(=O)N[C@@H]2CCCCc3cc(-c4ccnc(Nc5cnn(C)c5)n4)ccc32)C1
fraction unbound at 2 µM [1]: 0.07
solubility [2]: 80 µg/mL (≈ 168 µM)
Vd [3]: 1.6 L/kg
half-life [4]: 1.3 h
Cmax [5]: 2460 ng/mL
bioavailability [6]: 92%
solubility [7]: > 15000 µg/mL
Vd [8]: 0.6 L/kg
clearance [9]: 4 mL/min/kg
QH [10]: 31%
solubility kinetic [11]: > 30 µg/mL
AUC [12]: 14200 ng·h/mL
AUC [13]: 6940 ng·h/mL
bioavailability [14]: 69%
clearance [15]: 6 mL/min/kg
solubility kinetic [16]: > 30 µg/mL
Cmax [17]: 3710 ng/mL
logD [18]: 3.6
half-life [19]: 2.4 h
solubility [20]: 170 µg/mL (≈ 357 µM)
QH [21]: 11%

Cc1c(-c2c(F)cc(C(N)=O)c3[nH]c4c(c23)CC[C@H](C(C)(C)O)C4)cccc1-n1c(=O)c2cccc(F)c2n(C)c1=O [BMS-986142]
IC50 [22]: 1 nM
IC50 [23]: 110 nM

CC(C)OC1CN(C(=O)NCc2ccc(-c3ccnc(Nc4cnn(C)c4)n3)cc2Cl)C1
solubility kinetic [24]: < 30 µg/mL
solubility kinetic [25]: < 30 µg/mL

CC(C)OC1CN(C(=O)NCc2ccc(-c3ccnc(Nc4cnn(C)c4)n3)cc2C(F)(F)F)C1
solubility kinetic [24]: < 10 µg/mL
solubility kinetic [25]: < 10 µg/mL

Cc1cc(-c2ccnc(Nc3cnn(C)c3)n2)ccc1CNC(=O)N1CC(OC(C)C)C1
fraction unbound at 2 µM [1]: 0.06
solubility kinetic [24]: > 30 µg/mL
half-life [4]: 1.2 h
solubility kinetic [11]: > 30 µg/mL
solubility kinetic [16]: < 30 µg/mL
solubility kinetic [25]: < 30 µg/mL
logD [18]: 2.7
half-life [19]: 2.1 h

C=CC(=O)Nc1cccc(Oc2nc(Nc3ccc(N4CCN(C)CC4)cc3)nc3ccoc23)c1 [POSELTINIB]
IC50 [22]: 1 nM

Cc1cc(-c2ccnc(Nc3cnn(C)c3)n2)c(F)cc1CNC(=O)N1CC(OC(C)C)C1
IC50 [22]: > 10000 nM

Cc1c(CNC(=O)N2CC(OC(C)C)C2)ccc(-c2ccnc(Nc3cnn(C)c3)n2)c1F
solubility kinetic [24]: > 10 µg/mL
solubility kinetic [25]: > 10 µg/mL

CC(C)OC1CN(C(=O)NC2CCCc3cc(-c4ccnc(Nc5cnn(C)c5)n4)ccc32)C1 (stereo unspecified)
solubility kinetic [24]: > 30 µg/mL
solubility kinetic [25]: > 30 µg/mL

Cn1cc(Nc2nccc(-c3ccc4c(c3)CCCC[C@H]4NC(=O)c3cn(C(C)(C)C)nn3)n2)cn1
fraction unbound at 2 µM [1]: 0.011
fraction unbound at 2 µM [26]: 0.002
solubility kinetic [16]: > 50 µg/mL
solubility kinetic [25]: < 20 µg/mL
logD [18]: 3.5
IC50 [27]: 2000 nM
IC50 [28]: 6400 nM

Cn1cc(Nc2nccc(-c3ccc4c(c3)CCNC[C@H]4NC(=O)c3cn(C(C)(C)C)nn3)n2)cn1
fraction unbound at 2 µM [1]: 0.12
solubility kinetic [16]: > 50 µg/mL
solubility kinetic [25]: > 50 µg/mL
logD [18]: 2.3

Cn1cc(Nc2nccc(-c3ccc4c(c3)CCCC[C@H]4NC(=O)c3nc(C(C)(C)C)no3)n2)cn1
fraction unbound at 2 µM [1]: 0.008
fraction unbound at 2 µM [26]: 0.009
solubility kinetic [16]: > 50 µg/mL
solubility kinetic [25]: < 20 µg/mL
logD [18]: 2.8
IC50 [27]: 400 nM
IC50 [28]: 2600 nM

Cc1c(NC(=O)c2cc3c(s2)CCCC3)cccc1-c1cn(C)c(=O)c(Nc2ccc(C3CN(C)CC(=O)N3C)cc2)n1 (stereo unspecified)
IC50 [22]: 1 nM
IC50 [23]: 150 nM

Cn1cc(Nc2nccc(-c3ccc4c(c3)CNCC[C@H]4NC(=O)c3cn(C(C)(C)C)nn3)n2)cn1
fraction unbound at 2 µM [1]: 0.18
solubility kinetic [16]: > 50 µg/mL
solubility kinetic [25]: > 50 µg/mL
logD [18]: 2.9

CN1CCc2cc(-c3ccnc(Nc4cnn(C)c4)n3)ccc2[C@H](NC(=O)c2cn(C(C)(C)C)nn2)C1
fraction unbound at 2 µM [1]: 0.07
solubility kinetic [16]: > 50 µg/mL
logD [18]: 2.9

CN1CC[C@@H](NC(=O)c2cn(C(C)(C)C)nn2)c2ccc(-c3ccnc(Nc4cnn(C)c4)n3)cc2C1
IC50 [22]: 0.8 nM
fraction unbound at 2 µM [1]: 0.19
solubility kinetic [16]: > 50 µg/mL
solubility kinetic [25]: > 50 µg/mL
logD [18]: 1
pKa [29]: 4

COCCN1CC[C@@H](NC(=O)c2cn(C(C)(C)C)nn2)c2ccc(-c3ccnc(Nc4cnn(C)c4)n3)cc2C1
fraction unbound at 2 µM [1]: 0.1
solubility kinetic [16]: > 50 µg/mL
solubility kinetic [25]: > 50 µg/mL
logD [18]: 2.9
pKa [29]: 3.1

Cn1cc(Nc2nccc(-c3ccc4c(c3)CCCC[C@H]4NC(=O)c3nnc(C(C)(C)C)o3)n2)cn1
fraction unbound at 2 µM [1]: 0.041
fraction unbound at 2 µM [26]: 0.008
solubility kinetic [16]: > 50 µg/mL
solubility kinetic [25]: < 20 µg/mL
logD [18]: 2.3
IC50 [27]: 4000 nM
IC50 [28]: > 10000 nM
